# Experimental data reported in patent US10800765B2, “Indole derivative used as CRTH2 inhibitor” (CHIA TAI TIANQING PHARMACEUTICAL GROUP CO., LTD., priority 2016, dated 2020).
# Target: CRTH2 receptor (Homo sapiens (Human), UniProt Q9Y5Y4)
# Assay: PathHunter CHO-K1 CRTH2 β-arrestin antagonist assay (PGD2 agonist)
# Assay type: cell-based
# Conditions: PathHunter CHO-K1 CRTH2 β-arrestin cells; 30 min compound pre-incubation, then EC80 PGD2 for 90 min; chemiluminescence
# Method: PathHunter® CHO-K1 CRTH2 β-arrestin cells (DiscoverX, catalogue number 93-0291C2) grew under standard conditions, and were inoculated into a white-wall 384-well microplate at a density of 5,000 cells/well. 20 μL of Cell Plating Reagent 1 was used in each well. Before the test, the cells were incubated overnight at 37° C./5% CO2. A test compound was serially diluted in DMSO with a dilution factor of 3-fold to give 8 concentrations of the test compound. Shortly before the test, the serially diluted test compound was further diluted with the test buffer to 5 times of the test concentration. 5 μL of the further diluted test compound was added to the cells, and the cells were incubated for 30 min at 37° C. The concentration of the solvent was 1%. 5 μL of 6×EC80 agonist (PGD2) buffer was added to the cells, and the cells were incubated for 90 min at 37° C. Measured signals were generated by one-time addition of 15 μL (50% v/v) of PathHunter detection mixture reagent and subsequent one-hour incubation. The microplate was read through the chemiluminescent signals of PerkinElmer Envision™ reader. Biological activity of the test compound was analyzed by CBIS data analysis suite (ChemInnovation, CA), and was denoted as IC50 value.
# Chain of CRTH2 receptor (Q9Y5Y4 whole entry): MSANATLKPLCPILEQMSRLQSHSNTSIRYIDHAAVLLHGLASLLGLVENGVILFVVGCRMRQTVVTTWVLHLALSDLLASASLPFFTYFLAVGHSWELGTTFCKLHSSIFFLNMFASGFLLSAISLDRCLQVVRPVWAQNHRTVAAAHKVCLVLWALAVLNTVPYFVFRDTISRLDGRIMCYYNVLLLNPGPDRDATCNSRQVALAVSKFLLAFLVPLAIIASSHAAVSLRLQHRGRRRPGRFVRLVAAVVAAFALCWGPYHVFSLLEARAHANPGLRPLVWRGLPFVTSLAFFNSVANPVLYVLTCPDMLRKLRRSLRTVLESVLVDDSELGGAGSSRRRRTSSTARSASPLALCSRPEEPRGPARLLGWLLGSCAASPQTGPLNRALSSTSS
row,SMILES,IC50 [nM]
1,Cc1c(C2CS(=O)(=O)c3ccccc32)c2cc(F)ccc2n1CC(=O)O (stereo not drawn) [Example 2],100 to 1000
2,Cc1c(C2=CS(=O)(=O)c3ccccc32)c2ccc(F)cc2n1CC(=O)O [Example 3],100 to 1000
3,Cc1c(C2=CS(=O)(=O)c3ccccc32)c2cc(Cl)ccc2n1CC(=O)O [Example 5],100 to 1000
4,Cc1c(C2=CCCS(=O)(=O)c3ccccc32)c2cc(F)ccc2n1CC(=O)O [Example 9],100 to 1000
5,Cc1c(C2=CS(=O)(=O)c3ccncc32)c2cc(F)ccc2n1CC(=O)O [Example 10],100 to 1000
6,Cc1c(C2=CS(=O)(=O)c3ncccc32)c2cc(F)ccc2n1CC(=O)O [Example 11],100 to 1000
7,Cc1c(C2=CS(=O)(=O)c3ccc(C(F)(F)F)cc32)c2cc(F)ccc2n1CC(=O)O [Example 12],100 to 1000
8,Cc1ccc2c(c1)c(C1=CS(=O)(=O)c3ccc(C(F)(F)F)cc31)c(C)n2CC(=O)O [Example 15],100 to 1000
9,Cc1c(C2=CS(=O)(=O)c3ccc(C(F)(F)F)cc32)c2ccc(F)cc2n1CC(=O)O [Example 16],100 to 1000
10,Cc1c(C2=CS(=O)(=O)c3cc(C(F)(F)F)ccc32)c2cc(Cl)ccc2n1CC(=O)O [Example 17],100 to 1000
11,Cc1c(C2=CS(=O)(=O)c3cc(C(F)(F)F)ccc32)c2ccc(Cl)cc2n1CC(=O)O [Example 18],100 to 1000
12,Cc1ccc2c(c1)c(C1=CS(=O)(=O)c3cc(C(F)(F)F)ccc31)c(C)n2CC(=O)O [Example 19],100 to 1000
13,Cc1c(C2=CS(=O)(=O)c3cc(C(F)(F)F)ccc32)c2ccc(F)cc2n1CC(=O)O [Example 20],100 to 1000
14,Cc1c(C2=CS(=O)(=O)c3cc(-c4ccncc4)ccc32)c2cc(F)ccc2n1CC(=O)O [Example 21],100 to 1000
15,Cc1c(C2=CS(=O)(=O)c3cc(S(C)(=O)=O)ccc32)c2cc(F)ccc2n1CC(=O)O [Example 31],< 100
16,Cc1c(C2=CS(=O)(=O)c3ccc(Cl)cc32)c2cc(F)ccc2n1CC(=O)O [Example 33],100 to 1000
17,Cc1c(C2=CS(=O)(=O)c3ccc(Cl)cc32)c2cc(Cl)ccc2n1CC(=O)O [Example 34],100 to 1000
18,Cc1c(C2=CS(=O)(=O)c3ccc(Cl)cc32)c2ccc(C(F)(F)F)cc2n1CC(=O)O [Example 38],100 to 1000
19,Cc1c(Cc2ccc3c(c2)CCS3(=O)=O)c2cc(F)ccc2n1CC(=O)O [Example 43],< 100
20,Cc1c(Cc2ccc3c(c2)C=CS3(=O)=O)c2cc(F)ccc2n1CC(=O)O [Example 44],100 to 1000
21,Cc1c(C(C)C2=CS(=O)(=O)c3ccccc32)c2cc(F)ccc2n1CC(=O)O (stereo not drawn) [Example 45],100 to 1000

row,SMILES,IC50 [nM]
1,Cc1c(Cc2ccc3c(c2)C(F)C(F)(F)S3(=O)=O)c2cc(F)ccc2n1CC(=O)O (stereo not drawn) [Example 46],100 to 1000
2,Cc1c(Cc2ccc3c(c2)N(C)S(=O)(=O)C=C3)c2cc(F)ccc2n1CC(=O)O [Example 48],100 to 1000
3,Cc1c(Cc2cccc3c2CCS3(=O)=O)c2cc(F)ccc2n1CC(=O)O [Example 49],100 to 1000
4,Cc1c(Cc2ccc3c(c2)CCS3(=O)=O)c2ccccc2n1CC(=O)O [Example 50],100 to 1000
5,Cc1c(Cc2ccc3c(c2)CCS3(=O)=O)c2cc(Cl)ccc2n1CC(=O)O [Example 51],100 to 1000
6,Cc1ccc2c(c1)c(Cc1ccc3c(c1)CCS3(=O)=O)c(C)n2CC(=O)O [Example 52],100 to 1000
7,Cc1c(Cc2ccc3c(c2)CCS3(=O)=O)c2ccc(Cl)cc2n1CC(=O)O [Example 54],> 1000
8,Cc1c(Cc2ccc3c(c2)CCS3(=O)=O)c2cc(Br)ccc2n1CC(=O)O [Example 55],100 to 1000
9,Cc1c(Cc2ccc3c(c2)CCS3(=O)=O)c2cc([N+](=O)[O-])ccc2n1CC(=O)O [Example 57],100 to 1000
10,CC(=O)Nc1ccc2c(c1)c(Cc1ccc3c(c1)CCS3(=O)=O)c(C)n2CC(=O)O [Example 59],> 1000
11,O=C(O)Cn1cc(Cc2ccc3c(c2)CCS3(=O)=O)c2cc(F)ccc21 [Example 60],100 to 1000
12,Cc1c(Cc2cc3c(cc2C(F)(F)F)S(=O)(=O)CC3)c2cc(F)ccc2n1CC(=O)O [Example 61],100 to 1000
13,Cc1c(Cc2cc3c(cc2C(F)(F)F)S(=O)(=O)CCC3(F)F)c2cc(F)ccc2n1CC(=O)O [Example 63],100 to 1000
14,Cc1c(Cc2cc3c(cc2C(F)(F)F)S(=O)(=O)N(C)CC3(F)F)c2cc(F)ccc2n1CC(=O)O [Example 64],100 to 1000
15,Cc1c(Cc2ccc3c(n2)C(F)(F)CCS3(=O)=O)c2cc(F)ccc2n1CC(=O)O [Example 65],< 100
16,Cc1c(Cc2ccc3c(c2)N=CNS3(=O)=O)c2cc(F)ccc2n1CC(=O)O [Example 66],< 100
17,Cc1c(Cc2ccc3c(c2)N(C)CN(C2CC2)S3(=O)=O)c2cc(F)ccc2n1CC(=O)O [Example 70],< 100
18,Cc1c(Cc2ccc3c(c2)S(=O)(=O)CC3)c2cc(F)ccc2n1CC(=O)O [Example 74],100 to 1000
19,Cc1c(Cc2cccc3c2S(=O)(=O)CC3)c2cc(F)ccc2n1CC(=O)O [Example 75],100 to 1000
20,Cc1c(Cc2cc3c(cc2F)S(=O)(=O)N(C)CC3(F)F)c2cc(F)ccc2n1CC(=O)O [Example 78],100 to 1000
21,Cc1c(Cc2ccc3c(c2)C(F)(F)CCS3(=O)=O)c2ncccc2n1CC(=O)O [Example 80],100 to 1000
